In patent publication US12540118B2, “Dendrene amide compound, bactericide and use thereof” (Jiangsu Flag Chemical Industry Co., Ltd., priority 2020, dated 2026):

What was measured:
succinate dehydrogenase = biological target: T1, succinate dehydrogenase (Sus scrofa, UniProt A5GZW8+D0VWV4+Q007T0); experiment: Enzyme activity assay, succinate dehydrogenase (DCIP reduction); format: biochemical, porcine; conditions: read-out: Inhibitors (10 μM, SQR)
T1 construct: isolated from porcine hearts; from tissue; host or cells: porcine heart
Description: The inhibitory activities of control agents and target compounds on succinate dehydrogenase are determined.
The enzyme used in this test example is succinate dehydrogenase, which is isolated from porcine hearts.
The test method comprises the following steps: The total volume of the system is 1.8 ml, and the system contained 100 mM Na2HPO4—NaH2PO4 buffer (pH=7.4), 0.3 mM EDTA, 20 mM sodium succinate, 53 μM DCIP (2,6-dichloroindophenol sodium), and 2 nM succinate dehydrogenase. Thermostatic waterbath at 23° C. and magnetic stirring at 600 rpm. The decrease in the light absorption of the substrate DCIP is monitored at a wavelength of 600 nm and experimental points in a linear range are collected. Control substrate consumption not more than 5% of the experimental points. The molar extinction coefficient of DCIP is 21 mM^−1 cm^−1. And calculating the reduction yield of the DCIP in the reaction time, fitting a linear slope, and deducting the baseline slope to obtain the initial reaction speed.

Erysiphe graminis = Erysiphe graminis potting method; format: in vivo; conditions: for pest or weed control at 100 µg/mL / pest or weed control at 6.25 µg/mL / pest or weed control at 25 µg/mL: Blumeria graminis, read-out: Erysiphe graminis control rating
Description: The fungicidal activity of the control agents and target compounds are determined. The test and investigation method refers to SOP-SC-1116 Erysiphe graminis potting method in disinfectant rolls written by KANGZHUO and GUBAOGEN in “Standard operation specification for testing biological activity of pesticides”.

Sphaerotheca fuliginea = Sphaerotheca fuliginea potting method; format: in vivo; conditions: 100 mg/L; for pest or weed control at 100 µg/mL: Podosphaera fuliginea, read-out: Sphaerotheca fuliginea control rating
Description: The fungicidal activity of the control agents and target compounds are determined. The test and investigation method refers to SOP-SC-1101 sphaerotheca fuliginea potting method in disinfectant rolls written by KANGZHUO and GUBAOGEN in “Standard operation specification for testing biological activity of pesticides”.

T1 sequence (Q0QF01 43-664 partner): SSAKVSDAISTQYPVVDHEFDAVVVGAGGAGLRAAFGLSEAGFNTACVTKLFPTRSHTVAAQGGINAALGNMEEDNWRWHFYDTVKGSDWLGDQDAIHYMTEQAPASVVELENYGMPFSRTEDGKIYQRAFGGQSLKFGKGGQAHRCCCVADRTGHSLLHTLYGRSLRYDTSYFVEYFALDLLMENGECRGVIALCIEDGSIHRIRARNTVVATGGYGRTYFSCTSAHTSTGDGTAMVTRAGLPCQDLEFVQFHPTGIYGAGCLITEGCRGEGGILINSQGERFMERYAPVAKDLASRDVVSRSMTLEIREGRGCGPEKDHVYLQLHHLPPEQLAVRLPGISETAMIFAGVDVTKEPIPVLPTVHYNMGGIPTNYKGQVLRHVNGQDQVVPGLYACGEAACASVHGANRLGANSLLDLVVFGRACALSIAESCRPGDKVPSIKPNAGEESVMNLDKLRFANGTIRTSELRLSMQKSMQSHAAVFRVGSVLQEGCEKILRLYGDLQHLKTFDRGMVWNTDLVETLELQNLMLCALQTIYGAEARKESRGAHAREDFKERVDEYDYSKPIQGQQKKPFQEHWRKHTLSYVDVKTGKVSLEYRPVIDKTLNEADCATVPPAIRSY
T1 sequence (Q007T0 29-280): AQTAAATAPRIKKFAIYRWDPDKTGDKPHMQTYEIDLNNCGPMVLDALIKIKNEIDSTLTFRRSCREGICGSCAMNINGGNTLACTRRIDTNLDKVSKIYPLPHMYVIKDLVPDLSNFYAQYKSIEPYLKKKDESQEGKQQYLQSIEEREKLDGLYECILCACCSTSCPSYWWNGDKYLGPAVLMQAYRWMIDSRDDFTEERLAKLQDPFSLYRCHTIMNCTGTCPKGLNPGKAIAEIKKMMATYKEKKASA
T1 sequence (D0VWV4 30-169): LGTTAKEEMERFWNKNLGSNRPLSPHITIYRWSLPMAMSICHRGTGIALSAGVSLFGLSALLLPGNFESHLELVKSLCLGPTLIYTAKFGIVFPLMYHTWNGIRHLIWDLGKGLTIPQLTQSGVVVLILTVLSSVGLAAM
T1 sequence (A5GZW8 57-159 limits assumed): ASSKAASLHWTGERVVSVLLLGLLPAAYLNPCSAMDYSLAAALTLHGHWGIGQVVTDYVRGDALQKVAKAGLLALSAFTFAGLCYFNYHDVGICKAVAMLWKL

SMILES	inhibition at 10 µM (succinate dehydrogenase)	pest or weed control at 100 µg/mL (Erysiphe graminis; 100 mg/L)	pest or weed control at 100 µg/mL (Sphaerotheca fuliginea)	pest or weed control at 6.25 µg/mL (Erysiphe graminis; 6.25 mg/L)	pest or weed control at 25 µg/mL (Erysiphe graminis; 25 mg/L)	Erysiphe graminis control rating (Erysiphe graminis; 6.25 mg/L)	Erysiphe graminis control rating (Erysiphe graminis; 25 mg/L)	Erysiphe graminis control rating (Erysiphe graminis; 100 mg/L)	Sphaerotheca fuliginea control rating (Sphaerotheca fuliginea)
C=C(CN(C(=O)c1c(C(F)F)nn(C)c1F)C1CC1)c1cc(Cl)cc(Cl)c1 [Compound 2]	> 90%	80 to 100%	80 to 100%						
C=C(CN(C(=O)c1c(C(F)F)nn(C)c1F)C1CC1)c1ccccc1Br [Compound 3]	> 90%	80 to 100%	80 to 100%						
C=C(CN(C(=O)c1c(C(F)F)nn(C)c1F)C1CC1)c1ccc(C)cc1 [Compound 4]	> 90%	80 to 100%	< 70%						
C=C(CN(C(=O)c1c(C(F)F)nn(C)c1F)C1CC1)c1cccc(Br)c1 [Compound 5]	> 90%	80 to 100%	< 70%						
C=C(CN(C(=O)c1c(C(F)F)nn(C)c1F)C1CC1)c1ccccc1C [Compound 6]	> 90%	80 to 100%	80 to 100%						
C=C(CN(C(=O)c1c(C(F)F)nn(C)c1F)C1CC1)c1ccccc1Cl [Compound 7]	> 90%	80 to 100%	80 to 100%						
C=C(CN(C(=O)c1c(C(F)F)nn(C)c1F)C1CC1)c1cccc(Cl)c1Cl [Compound 8]	> 90%	80 to 100%	80 to 100%						
C=C(CN(C(=O)c1c(C(F)F)nn(C)c1F)C1CC1)c1ccccc1 [Compound 9]	> 90%	80 to 100%	< 70%						
C=C(CN(C(=O)c1c(C(F)F)nn(C)c1F)C1CC1)c1ccc(Cl)c(Cl)c1 [Compound 10]	> 90%	80 to 100%	80 to 100%						
C=C(CN(C(=O)c1c(C(F)F)nn(C)c1F)C1CC1)c1ccc(Cl)c(C(F)(F)F)c1 [Compound 11]	> 90%	80 to 100%	80 to 100%						
C=C(CN(C(=O)c1c(C(F)F)nn(C)c1F)C1CC1)c1cccc(F)c1F [Compound 12]	> 90%	80 to 100%	70 to 80%						
C=C(CN(C(=O)c1c(C(F)F)nn(C)c1F)C1CC1)c1cc(F)c(Cl)cc1Cl [Compound 13]	> 90%	80 to 100%	80 to 100%						
C=C(CN(C(=O)c1c(C(F)F)nn(C)c1F)C1CC1)c1cc(Cl)ccc1Cl [Compound 14]	> 90%	80 to 100%	80 to 100%						
C=C(CN(C(=O)c1c(C(F)F)nn(C)c1F)C1CC1)c1ccc(S(C)(=O)=O)cc1 [Compound 15]	> 90%	80 to 100%	70 to 80%						
C=C(CN(C(=O)c1c(C(F)F)nn(C)c1F)C1CC1)c1cccc(Cl)c1 [Compound 16]	> 90%	80 to 100%	70 to 80%						
C=C(CN(C(=O)c1c(C(F)F)nn(C)c1F)C1CC1)c1ccc(Cl)cc1 [Compound 17]	> 90%	80 to 100%	80 to 100%						
C=C(CN(C(=O)c1c(C(F)F)nn(C)c1F)C1CC1)c1c(Cl)cccc1Cl [Compound 18]	> 90%	80 to 100%	80 to 100%						
C=C(CN(C(=O)c1c(C(F)F)nn(C)c1F)C1CC1)c1c(Cl)cc(Cl)cc1Cl [Compound 19]	> 90%	80 to 100%	80 to 100%						
C=C(CN(C(=O)c1c(C(F)F)nn(C)c1F)C1CC1)c1ccccc1F [Compound 20]	> 90%	80 to 100%	80 to 100%						
C=C(CN(C(=O)c1c(C(F)F)nn(C)c1F)C1CC1)c1cccc(F)c1 [Compound 21]	> 90%	80 to 100%	70 to 80%						
C=C(CN(C(=O)c1c(C(F)F)nn(C)c1F)C1CC1)c1ccc(F)cc1 [Compound 22]	> 90%	80 to 100%	80 to 100%						

SMILES	inhibition at 10 µM (succinate dehydrogenase)	pest or weed control at 100 µg/mL (Erysiphe graminis; 100 mg/L)	pest or weed control at 100 µg/mL (Sphaerotheca fuliginea)	pest or weed control at 6.25 µg/mL (Erysiphe graminis; 6.25 mg/L)	pest or weed control at 25 µg/mL (Erysiphe graminis; 25 mg/L)	Erysiphe graminis control rating (Erysiphe graminis; 6.25 mg/L)	Erysiphe graminis control rating (Erysiphe graminis; 25 mg/L)	Erysiphe graminis control rating (Erysiphe graminis; 100 mg/L)	Sphaerotheca fuliginea control rating (Sphaerotheca fuliginea)
C=C(CN(C(=O)c1c(C(F)F)nn(C)c1F)C1CC1)c1ccc(F)cc1F [Compound 23]	> 90%	80 to 100%	80 to 100%						
C=C(CN(C(=O)c1c(C(F)F)nn(C)c1F)C1CC1)c1cc(F)ccc1F [Compound 24]	> 90%	80 to 100%	80 to 100%						
C=C(CN(C(=O)c1c(C(F)F)nn(C)c1F)C1CC1)c1c(F)cccc1F [Compound 25]	> 90%	80 to 100%	80 to 100%						
C=C(CN(C(=O)c1c(C(F)F)nn(C)c1F)C1CC1)c1c(F)cc(F)cc1F [Compound 26]	> 90%	80 to 100%	80 to 100%						
C=C(CN(C(=O)c1c(C(F)F)nn(C)c1F)C1CC1)c1ccc(Br)cc1 [Compound 27]	> 90%	80 to 100%	80 to 100%						
C=C(CN(C(=O)c1c(C(F)F)nn(C)c1F)C1CC1)c1ccc(Br)cc1Br [Compound 28]	> 90%	80 to 100%	80 to 100%						
C=C(CN(C(=O)c1c(C(F)F)nn(C)c1F)C1CC1)c1cc(Br)ccc1Br [Compound 29]	> 90%	80 to 100%	80 to 100%						
C=C(CN(C(=O)c1c(C(F)F)nn(C)c1F)C1CC1)c1c(Br)cccc1Br [Compound 30]	> 90%	80 to 100%	80 to 100%						
C=C(CN(C(=O)c1c(C(F)F)nn(C)c1F)C1CC1)c1c(Br)cc(Br)cc1Br [Compound 31]	> 90%	80 to 100%	80 to 100%						
C=C(CN(C(=O)c1c(C(F)F)nn(C)c1F)C1CC1)c1cccc(C)c1 [Compound 32]	> 90%	80 to 100%	70 to 80%						
C=C(CN(C(=O)c1c(C(F)F)nn(C)c1F)C1CC1)c1ccc(C)cc1C [Compound 33]	> 90%	80 to 100%	80 to 100%						
C=C(CN(C(=O)c1c(C(F)F)nn(C)c1F)C1CC1)c1cc(C)ccc1C [Compound 34]	> 90%	80 to 100%	80 to 100%	70 to 80%	80 to 100%				
C=C(CN(C(=O)c1c(C(F)F)nn(C)c1F)C1CC1)c1c(C)cccc1C [Compound 35]	> 90%	80 to 100%	80 to 100%	70 to 80%	80 to 100%				
C=C(CN(C(=O)c1c(C(F)F)nn(C)c1F)C1CC1)c1c(C)cc(C)cc1C [Compound 36]	> 90%	80 to 100%	80 to 100%	80 to 100%	80 to 100%				
C=C(CN(C(=O)c1c(C(F)F)nn(C)c1F)C1CC1)c1cc(C(C)C)ccc1C [Compound 37]	> 90%	80 to 100%	70 to 80%	70 to 80%	80 to 100%				
C=C(CN(C(=O)c1c(C(F)F)nn(C)c1F)C1CC1)c1cc(C)ccc1C(C)C [Compound 38]	> 90%	80 to 100%	70 to 80%	70 to 80%	80 to 100%				
C=C(CN(C(=O)c1c(C(F)F)nn(C)c1F)C1CC1)c1cc(C)ccc1C(C)(C)C [Compound 39]	> 90%	80 to 100%	70 to 80%						
C=C(CN(C(=O)c1c(C(F)F)nn(C)c1F)C1CC1)c1cc(C(C)(C)C)ccc1C [Compound 40]	> 90%	80 to 100%	70 to 80%						
CNC(=O)/C(=N/OC)c1ccccc1CO/N=C(C)/C=C/c1c(Cl)cccc1Cl [Fenaminstrobin, reference compound]						B (70% ≤ B < 80%)	A (80% ≤ A ≤ 100%)	A (80% ≤ A ≤ 100%)	B (70% ≤ B < 80%)
OC(Cc1ccccc1Cl)(Cn1nc[nH]c1=S)C1(Cl)CC1 (stereo not drawn) [Prothioconazole, reference compound]		80 to 100%	70 to 80%	70 to 80%	80 to 100%				
